Source: PubChem BioAssay AID264 (DTP/NCI, 2004)
Records with an inconclusive call do not appear.

System: nude mice, LX-1 lung xenograft intrarenal, tumor weight T/C
Assay: NCI In Vivo Anticancer Drug Screen. Data for tumor model Human Lung LX-1 Xenograft (intrarenal inoculation) in NU/NU Swiss (nude) mice
Conditions: endpoint: mean tumor weight change, higher = larger tumour
Experimental: The antitumor activity of compounds was measured in mice bearing transplantable tumors. Survival or tumor size were measured and the results are expressed as the measurement made in the treated group (T) divided by the measurement made in the vehicle treated control group (C). The tumor model used in this assay is Human Lung LX-1 Xenograft (intrarenal inoculation) in NU/NU Swiss (nude) mice

[1] = dose: 6.25 mg/kg/injection, schedule: Q04DX003 (sc), vehicle: suspension in saline

## COc1ccc2c(c1)CCC(c1ccccc1)=C2c1ccc(OCCN2CCCC2)cc1
dose: 100.0 mg/kg/injection, schedule: Q04DX003 (sc), vehicle: Klucel (hydroxypropylcellulose) (HPC)
  T/C: 116 % of control
dose: 200.0 mg/kg/injection, schedule: Q04DX003 (sc), vehicle: Klucel (hydroxypropylcellulose) (HPC)
  T/C: 85 % of control
dose: 400.0 mg/kg/injection, schedule: Q04DX003 (sc), vehicle: Klucel (hydroxypropylcellulose) (HPC)
  T/C: 57 % of control
dose: 800.0 mg/kg/injection, schedule: Q04DX003 (sc), vehicle: Klucel (hydroxypropylcellulose) (HPC)
  T/C: 101 % of control

## CCOC(=O)NC1=C(N2CC2)C(=O)C(NC(=O)OCC)=C(N2CC2)C1=O
dose: 0.78 mg/kg/injection, schedule: Q01DX010 (sc), vehicle: saline
  T/C: 67 % of control
dose: 1.56 mg/kg/injection, schedule: Q01DX010 (sc), vehicle: saline
  T/C: 74 % of control
dose: 1.56 mg/kg/injection, schedule: Q01DX010 (sc), vehicle: suspension in saline
  T/C: 56 % of control
dose: 3.12 mg/kg/injection, schedule: Q04DX003 (sc), vehicle: suspension in saline
  T/C: 77 % of control
dose: 3.13 mg/kg/injection, schedule: Q01DX010 (sc), vehicle: saline
  T/C: 81 % of control
dose: 3.13 mg/kg/injection, schedule: Q01DX010 (sc), vehicle: suspension in saline
  T/C: 89 % of control
dose: 3.13 mg/kg/injection, schedule: Q04DX003 (ip), vehicle: saline
  T/C: 64 % of control
dose: 6.25 mg/kg/injection, schedule: Q01DX010 (sc), vehicle: saline
  T/C: 35 % of control
dose: 6.25 mg/kg/injection, schedule: Q04DX003 (ip), vehicle: saline
  T/C: 96 % of control
dose: 6.25 mg/kg/injection, schedule: Q04DX003 (sc), vehicle: saline
  T/C: 75 % of control
[1]
  T/C: 65 % of control
dose: 12.5 mg/kg/injection, schedule: Q04DX003 (ip), vehicle: saline
  T/C: 34 % of control
dose: 12.5 mg/kg/injection, schedule: Q04DX003 (sc), vehicle: saline
  T/C: 71 % of control
dose: 25.0 mg/kg/injection, schedule: Q04DX003 (ip), vehicle: saline
  T/C: 9 % of control

## O=C1NC(=O)/C(=C/C=C/c2ccccc2)S1
dose: 300.0 mg/kg/injection, schedule: Q04DX003 (sc), vehicle: saline with Tween-80
  T/C: 87 % of control
dose: 600.0 mg/kg/injection, schedule: Q04DX003 (sc), vehicle: saline with Tween-80
  T/C: 118 % of control
dose: 1200.0 mg/kg/injection, schedule: Q04DX003 (sc), vehicle: saline with Tween-80
  T/C: 94 % of control
dose: 2400.0 mg/kg/injection, schedule: Q04DX003 (sc), vehicle: saline with Tween-80
  T/C: 62 % of control

## C[n+]1c(/C=C\C=C\N2CCCCC2)sc2ccccc21
dose: 1.5 mg/kg/injection, schedule: Q04DX003 (sc), vehicle: Klucel (hydroxypropylcellulose) (HPC)
  T/C: 52 % of control
dose: 3.0 mg/kg/injection, schedule: Q04DX003 (sc), vehicle: Klucel (hydroxypropylcellulose) (HPC)
  T/C: 83 % of control

## NC(=S)c1cn(C2OC(CO)C(O)C2O)c2ncnc(N)c12 (centres undefined)
[1]
  T/C: 58 % of control
dose: 12.5 mg/kg/injection, schedule: Q04DX003 (sc), vehicle: suspension in saline
  T/C: 43 % of control

## C/C=C(\C)c1cc(=O)c2c(C)cc3c(c2o1)C(=O)c1c(O)c(C2CC(C)(N(C)C)C(O)C(C)O2)cc(C2CC(N(C)C)C(O)C(C)O2)c1C3=O (centres undefined)
dose: 2.0 mg/kg/injection, schedule: Q04DX003 (sc), vehicle: saline
  T/C: 76 % of control
dose: 4.0 mg/kg/injection, schedule: Q04DX003 (sc), vehicle: saline
  T/C: 89 % of control
dose: 8.0 mg/kg/injection, schedule: Q04DX003 (sc), vehicle: saline
  T/C: 80 % of control
dose: 16.0 mg/kg/injection, schedule: Q04DX003 (sc), vehicle: saline
  T/C: 35 % of control

## Cc1cc(N2C(=O)CCSC2=S)ccc1Cl
dose: 75.0 mg/kg/injection, schedule: Q04DX003 (sc), vehicle: Klucel (hydroxypropylcellulose) (HPC)
  T/C: 60 % of control
dose: 150.0 mg/kg/injection, schedule: Q04DX003 (sc), vehicle: Klucel (hydroxypropylcellulose) (HPC)
  T/C: 111 % of control
dose: 300.0 mg/kg/injection, schedule: Q04DX003 (sc), vehicle: Klucel (hydroxypropylcellulose) (HPC)
  T/C: 62 % of control
dose: 600.0 mg/kg/injection, schedule: Q04DX003 (sc), vehicle: Klucel (hydroxypropylcellulose) (HPC)
  T/C: 75 % of control
